# Experimental data published in US12568967B2, “Compositions comprising pyridine carboxylate herbicides with synthetic auxin herbicides or auxin transport inhibitors” (priority 2018, dated 2026).
# Where two headings read alike, the source gives them in different places.
# Assays:
# [1] = tested on: Amaranthus retroflexus (pigweed, AMARE); assay: Greenhouse postemergence trial AMARE; format: in vivo; settings: for % visual injury: c1-2 Compound A 7.5/10;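 as to all read-outs here: Greenhouse-grown plants sprayed at second to third true leaf stage, injury rated by eye after 20-22 d versus solvent-blank sprayed controls, 0 = no injury, 100 = complete kill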
# [2] = tested on: Matricaria inodora (false chamomile, MATIN); assay: Greenhouse postemergence trial MATIN; format: in vivo; settings: MATIN
# [3] = tested on: Matricaria chamomilla (wild chamomile, MATCH); assay: Greenhouse postemergence trial MATCH; format: in vivo; settings: MATCH;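 also: greenhouse plants sprayed at second to third true leaf stage, injury rated by eye 20-22 d later versus solvent-blank controls on 0–100 scale, 0 no injury, 100 complete kill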
# [4] = tested on: Veronica persica (bird's-eye speedwell, VERPE); assay: Greenhouse postemergence trial VERPE; format: in vivo
# [5] = tested on: Cyanus segetum (cornflower, CENCY); assay: Greenhouse postemergence trial CENCY; format: in vivo; settings: CENCY
# [6] = tested on: Veronica hederifolia (ivyleaf speedwell, VERHE); assay: Greenhouse postemergence trial VERHE; format: in vivo; settings: VERHE
# [7] = tested on: Anthemis arvensis (field chamomile, ANTAR); assay: Greenhouse postemergence trial ANTAR; format: in vivo; settings: ANTAR
# [8] = tested on: Triticum aestivum (spring wheat, TRZAS); format: in vivo; settings: for % visual injury (crop phytotoxicity): c1-2 Compound A 7.5/10
# Procedure: (§1) Seeds of the desired test plant species were planted in a 90:10% v/v (volume/volume) mixture of PRO-MIX® BX (Premier Tech Horticulture, Quakertown, PA, USA) and PROFILE® GREENS GRADE™ (Profile Products LLC, Buffalo Grove, IL, USA) planting mixture, which typically has a pH of 5.2 to 6.2 and an organic matter content of at least 50 percent, in plastic pots with a surface area of 103.2 square centimeters (cm^2). […] The plants were grown for 7-36 days (d) in a greenhouse with an approximate 14-hour (h) photo-period which was maintained at about 23° C. during the day and 22° C. during the night. Nutrients and water were added on a regular basis and supplemental lighting was provided with overhead metal halide 1000-Watt lamps as necessary. The plants were employed for testing when they reached the second or third true leaf stage.
# (§2) Emulsifiable concentrates of each of each pyridine carboxylate herbicide (Compound A or Compound B) were prepared at 100 grams acid equivalent per liter (g ae/L). The emulsifiable concentrates also included a safener, cloquintocet-mexyl, at 120 grams active ingredient per liter (g ai/L), unless otherwise noted below. An aliquot of each emulsifiable concentrate was placed in a 25 mL glass vial and diluted with an aqueous mixture of 1.25% (v/v) ACTIROB® B esterified rapeseed oil (Bayer Crop Science, Research Triangle Park, NC, USA) or MSO® Concentrate with LECI-TECH® methylated soybean oil (Loveland Products, Loveland, CO, USA) to obtain concentrated stock solutions at the highest application rate for each herbicide, based upon a 12 milliliter (mL) application volume at a rate of 187 liters per hectare (L/ha). The concentrated stock solutions were further diluted with an aqueous mixture of 1.25% v/v ACTIROB® B or MSO® Concentrate with LECI-TECH® to obtain stock solutions at reduced application rates for each herbicide. Spray solutions of the herbicide combinations (Compound A or Compound B plus synthetic auxin herbicide or auxin transport inhibitor) were prepared by adding weighed amounts or aliquots of the synthetic auxin herbicide or auxin transport inhibitor to the stock solutions of Compound A or Compound B to form 12-mL spray solutions in two-way combinations.
# (§3) The spray solutions were applied to the plant material with an overhead Mandel track sprayer equipped with 8002E nozzles calibrated to deliver 187 L/ha over an application area of 0.503 square meters (m^2) at a spray height of 18 inches (43 centimeters (cm)) above the average plant canopy. Control plants were sprayed in the same manner with the solvent blank. All pyridine carboxylate herbicide (component a) application rates are given as “g ae/ha” and all synthetic auxin herbicide or auxin transport inhibitor (component b) application rates are given as “g ai/ha.”
# (§4) The treated plants and control plants were placed in a greenhouse as described above and watered by sub-irrigation to prevent wash-off of the test compounds. After 20-22 d, the condition of the test plants as compared with that of the control plants was determined visually and scored on a scale of 0 to 100 percent where 0 corresponds to no injury and 100 corresponds to complete kill.
# [9] = tested on: Papaver rhoeas (corn poppy, PAPRH); assay: Greenhouse postemergence trial PAPRH; format: in vivo; settings: PAPRH
# [10] = tested on: Papaver rhoeas (corn poppy), herbicide-resistant (PAPRH-R); assay: Greenhouse postemergence trial PAPRH-R; format: in vivo; settings: PAPRH-R
# [11] = tested on: Lamium purpureum (purple deadnettle, LAMPU); assay: Greenhouse postemergence trial LAMPU
# Procedure: The plants were grown for 7-36 days (d) in a greenhouse with an approximate 14-hour (h) photo-period which was maintained at about 23° C. during the day and 22° C. during the night. Nutrients and water were added on a regular basis and supplemental lighting was provided with overhead metal halide 1000-Watt lamps as necessary. The plants were employed for testing when they reached the second or third true leaf stage.
# The emulsifiable concentrates also included a safener, cloquintocet-mexyl, at 120 grams active ingredient per liter (g ai/L), unless otherwise noted below.
# Control plants were sprayed in the same manner with the solvent blank. All pyridine carboxylate herbicide (component a) application rates are given as “g ae/ha” and all synthetic auxin herbicide or auxin transport inhibitor (component b) application rates are given as “g ai/ha.”
# as §4
# [12] = tested on: Sinapis arvensis (wild mustard, SINAR); assay: Greenhouse postemergence trial SINAR; format: in vivo; settings: SINAR
# [13] = tested on: Polygonum convolvulus (wild buckwheat, POLCO); assay: Greenhouse postemergence trial POLCO; format: in vivo
# [14] = tested on: Viola tricolor (wild pansy, VIOTR); assay: Greenhouse postemergence trial VIOTR;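 also: greenhouse plants sprayed at second to third true leaf stage, injury rated visually after 20-22 d against solvent-blank sprayed controls, 0 meaning no injury and 100 complete kill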
# [15] = tested on: Viola arvensis (field violet, VIOAR); assay: Greenhouse postemergence trial VIOAR; format: in vivo; settings: VIOAR
# [16] = tested on: Brassica napus (winter rape, BRSNW); assay: Greenhouse postemergence trial BRSNW; format: in vivo
# [17] = tested on: Stellaria media (chickweed, STEME); assay: Greenhouse postemergence trial STEME; format: in vivo; settings: STEME
# [18] = tested on: Cirsium arvense (Canadian thistle, CIRAR); assay: Greenhouse postemergence trial CIRAR; format: in vivo
# Procedure: as §1, §2, §3, §4
# [19] = tested on: Matricaria discoidea (pineapple weed, MATMT); assay: Greenhouse postemergence trial MATMT; format: in vivo; settings: MATMT
# Procedure: as §1, §2, §3, §4
# [20] = tested on: Capsella bursa-pastoris (shepherd's purse, CAPBP); assay: Greenhouse postemergence trial CAPBP; format: in vivo; settings: CAPBP
# [21] = tested on: Salsola kali (Russian thistle, SASKR); assay: Greenhouse postemergence trial SASKR; format: in vivo; settings: SASKR;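 also: greenhouse plants sprayed at second or third true leaf stage, injury rated by eye after 20-22 d against solvent-blank controls, 0 meaning no injury, 100 complete kill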
# [22] = tested on: Chenopodium album L. (common lambsquarters, CHEAL); assay: Greenhouse postemergence trial CHEAL; format: in vivo; settings: for % visual injury: c1-2 Compound A 7.5/10;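 as to all read-outs here: greenhouse plants sprayed at second to third true leaf stage, injury rated by eye after 20-22 d versus solvent-blank sprayed controls, 0 = no injury, 100 = complete kill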
# [23] = tested on: Kochia scoparia (kochia, KCHSC); assay: Greenhouse postemergence trial KCHSC; format: in vivo; settings: KCHSC
# [24] = tested on: Hordeum vulgare (spring barley, HORVS); format: in vivo
# [25] = tested on: Triticum aestivum (winter wheat, TRZAW); assay: Greenhouse postemergence crop phytotoxicity TRZAW; format: in vivo; settings: TRZAW
# [26] = tested on: Hordeum vulgare (winter barley, HORVW); assay: Greenhouse postemergence crop phytotoxicity HORVW; format: in vivo; settings: HORVW
# [27] = c3 2,4-D-EHE 280, c4-5 A 7.5/10 + 2,4-D-EHE 280 g/ha
# [28] = partner herbicide 560 g/ha alone
# [29] = c3 Quinclorac 140, c4-5 A 7.5/10 + Quinclorac 140 g/ha
# [30] = Papaver rhoeas, post-emergence, Quinclorac 560 g/ha, read-out: % visual injury Obs
smiles,measurement,setting,value
"CCCCC(CC)COC(=O)COc1ccc(Cl)cc1Cl [2,4-D-EHE, 2,4-D-2-ethylhexyl, reference compound]",AMARE % visual injury Obs,"[1]; 2,4-D-EHE 280 g/ha (Table 36)",45%
same,% visual injury,[1]; [27],70%
same,"visual injury, Obs",[2]; [28],10%
same,"visual injury, Obs",[3]; [28],10%
same,"visual injury, Obs","[4]; VERPE, partner herbicide 560 g/ha alone",65%
same,"visual injury, Obs",[5]; [28],100%
same,"visual injury, Obs",[6]; [28],70%
same,"visual injury, Obs",[7]; [28],60%
same,% visual injury (crop phytotoxicity),[8]; [27],0%
same,"visual injury, Obs",[9]; [28],60%
same,"visual injury, Obs",[10]; [28],50%
same,"visual injury, Obs","[11]; LAMPU, partner herbicide 560 g/ha alone",20%
same,"visual injury, Obs",[12]; [28],85%
same,POLCO % visual injury Obs,"[13]; 2,4-D-EHE 280 g/ha (Table 36)",23%
same,POLCO Δ (Obs minus Exp),"[13]; 2,4-D-EHE 280 g/ha (Table 36)",11%
same,"visual injury, Obs","[13]; POLCO, partner herbicide 560 g/ha alone",30%
same,"visual injury, Obs","[14]; VIOTR, partner herbicide 560 g/ha alone",65%
same,"visual injury, Obs",[15]; [28],60%
same,BRSNW % visual injury Obs,"[16]; 2,4-D-EHE 280 g/ha (Table 36)",65%
same,BRSNW Δ (Obs minus Exp),"[16]; 2,4-D-EHE 280 g/ha (Table 36)",3%
same,"visual injury, Obs","[16]; BRSNW, partner herbicide 560 g/ha alone",100%
same,"visual injury, Obs",[17]; [28],10%
same,CIRAR % visual injury Obs,"[18]; 2,4-D-EHE 280 g/ha (Table 36)",45%
same,"visual injury, Obs","[18]; CIRAR, partner herbicide 560 g/ha alone",65%
same,"visual injury, Obs",[19]; [28],5%
same,"visual injury, Obs",[20]; [28],70%
same,"visual injury, Obs",[21]; [28],65%
same,% visual injury,[22]; [27],75%
same,"visual injury, Obs",[23]; [28],65%
Cc1cc(Cl)ccc1OC(C)C(=O)O (stereo not shown) [Mecoprop],% visual injury (Obs),"[1]; AMARE, alone 280 g/ha",58%
same,"% visual injury, Obs","[2]; applied alone, 560 g/ha",65%
same,% visual injury (Obs),"[24]; HORVS, alone 280 g/ha",0%
same,"% visual injury, Obs","[24]; HORVS, applied alone, 560 g/ha",0%
same,% visual injury (Obs),[3]; alone 280 g/ha,18%
same,"% visual injury, Obs","[3]; applied alone, 560 g/ha",10%
same,"% visual injury, Obs","[4]; VERPE, applied alone, 560 g/ha",30%
same,"% visual injury, Obs","[5]; applied alone, 560 g/ha",100%
same,"% visual injury, Obs","[6]; applied alone, 560 g/ha",50%
same,"% visual injury, Obs","[7]; applied alone, 560 g/ha",10%
same,% visual injury (Obs),"[8]; TRZAS, alone 280 g/ha",0%
same,"% visual injury, Obs","[8]; TRZAS, applied alone, 560 g/ha",0%
same,"% visual injury, Obs","[9]; applied alone, 560 g/ha",65%
same,"% visual injury, Obs","[10]; applied alone, 560 g/ha",30%
same,"% visual injury, Obs","[25]; applied alone, 560 g/ha",0%
same,"% visual injury, Obs","[11]; LAMPU, applied alone, 560 g/ha",10%
same,% visual injury (Obs),[12]; alone 280 g/ha,80%
same,"% visual injury, Obs","[12]; applied alone, 560 g/ha",95%
same,% visual injury (Obs),"[13]; POLCO, alone 280 g/ha",10%
same,"% visual injury, Obs","[13]; POLCO, applied alone, 560 g/ha",20%
same,"% visual injury, Obs","[14]; VIOTR, applied alone, 560 g/ha",65%
same,"% visual injury, Obs","[15]; applied alone, 560 g/ha",10%
same,% visual injury (Obs),"[16]; BRSNW, alone 280 g/ha",63%
same,plant injury at 560 g/ha,"[16]; Brassica napus, post-emergence, BRSNW, applied alone, 560 g/ha, read-out: % visual injury, Obs",75%
same,"% visual injury, Obs","[17]; applied alone, 560 g/ha",30%
same,% visual injury (Obs),"[18]; CIRAR, alone 280 g/ha",68%
same,"% visual injury, Obs","[18]; CIRAR, applied alone, 560 g/ha",70%
same,"% visual injury, Obs","[19]; applied alone, 560 g/ha",10%
same,"% visual injury, Obs","[20]; applied alone, 560 g/ha",60%
same,"% visual injury, Obs","[26]; applied alone, 560 g/ha",0%
same,"% visual injury, Obs","[21]; applied alone, 560 g/ha",50%
same,% visual injury (Obs),"[22]; CHEAL, alone 280 g/ha",73%
same,% visual injury (Obs),[23]; alone 280 g/ha,68%
same,"% visual injury, Obs","[23]; applied alone, 560 g/ha",80%
"O=C(O)c1c(Cl)ccc2cc(Cl)cnc12 [Quinclorac, quinclorac, reference compound]",% visual injury,[1]; [29],0%
same,pest or weed control,"[2]; Tripleurospermum inodorum, post-emergence, Quinclorac 560 g/ha, read-out: % visual injury Obs",0%
same,% visual injury Obs,"[24]; HORVS, Quinclorac 560 g/ha",0%
same,% visual injury (crop phytotoxicity),"[24]; c1-2 Compound A 7.5/10, c3 Quinclorac 140, c4-5 A 7.5/10 + Quinclorac 140 g/ha",5%
same,pest or weed control,"[3]; Matricaria chamomilla, post-emergence, Quinclorac 560 g/ha, read-out: % visual injury Obs",10%
same,pest or weed control,"[4]; Veronica persica, post-emergence, VERVE, Quinclorac 560 g/ha, read-out: % visual injury Obs",50%
same,pest or weed control,"[5]; Centaurea cyanus, post-emergence, Quinclorac 560 g/ha, read-out: % visual injury Obs",60%
same,pest or weed control,"[6]; Veronica hederifolia, post-emergence, Quinclorac 560 g/ha, read-out: % visual injury Obs",30%
same,pest or weed control,"[7]; Anthemis arvensis, post-emergence, Quinclorac 560 g/ha, read-out: % visual injury Obs",0%
same,% visual injury Obs,"[8]; TRZAS, Quinclorac 560 g/ha",0%
same,% visual injury (crop phytotoxicity),[8]; [29],0%
same,pest or weed control,[9]; [30],10%
same,pest or weed control,[10]; [30],50%
same,% visual injury Obs,[25]; Quinclorac 560 g/ha,0%
same,pest or weed control at 560 g/ha,"[11]; Lamium purpureum, post-emergence, read-out: % visual injury Obs",10%
same,pest or weed control,"[12]; Mutarda arvensis, post-emergence, Quinclorac 560 g/ha, read-out: % visual injury Obs",10%
same,pest or weed control,"[13]; Fallopia convolvulus, post-emergence, POLCO, Quinclorac 560 g/ha, read-out: % visual injury Obs",10%
same,pest or weed control at 560 g/ha,"[14]; Viola tricolor, post-emergence, read-out: % visual injury Obs",10%
same,pest or weed control,"[15]; Viola arvensis, post-emergence, Quinclorac 560 g/ha, read-out: % visual injury Obs",30%
same,plant injury,"[16]; Brassica napus, post-emergence, BRSNW, Quinclorac 560 g/ha, read-out: % visual injury Obs",10%
same,pest or weed control,"[17]; Stellaria media, post-emergence, Quinclorac 560 g/ha, read-out: % visual injury Obs",5%
same,pest or weed control,"[18]; Cirsium arvense, post-emergence, CIRAR, Quinclorac 560 g/ha, read-out: % visual injury Obs",30%
same,pest or weed control,"[19]; Matricaria discoidea, post-emergence, Quinclorac 560 g/ha, read-out: % visual injury Obs",0%
same,pest or weed control,"[20]; Capsella bursa-pastoris, post-emergence, Quinclorac 560 g/ha, read-out: % visual injury Obs",0%
same,% visual injury Obs,[26]; Quinclorac 560 g/ha,0%
same,pest or weed control,"[21]; Salsola kali, post-emergence, Quinclorac 560 g/ha, read-out: % visual injury Obs",10%
same,% visual injury,[22]; [29],0%
same,pest or weed control,"[23]; Bassia scoparia, post-emergence, Quinclorac 560 g/ha, read-out: % visual injury Obs",10%
